# Measurements published in patent US20260015592A1, “NEDDYLATION-ACTIVATING ENZYME INHIBITORS AS VIRAL SENSITIZERS AND USES THEREOF” (priority 2022, published 2026).
# Residues, ends and D or L forms follow the SMILES beside them. *: point of attachment. Cbz = O=C(OCc1ccccc1)*; CH2F = FC*
# Assays:
# VSVΔ51 [1] = format: cell-based, vesicular stomatitis virus
# 786-0 cells [2] = tested on: 786-0 cells
# VSVΔ51 [3] = format: cell-based, vesicular stomatitis virus; remark: listed apart in the source
# VSVΔ51 [4] = format: cell-based, vesicular stomatitis virus; remark: listed apart in the source
# VSVΔ51 [5] = format: cell-based, vesicular stomatitis virus; remark: listed apart in the source
# VSVΔ51 [6] = format: cell-based, vesicular stomatitis virus; remark: listed apart in the source
# 786-0 cells [7] = format: cell-based, Human
# CT26WT colon carcinoma = settings: mouse, in vivo
# 4T1 mammary carcinoma = settings: mouse, in vivo
# 786-0 cells [8] = format: cell-based, Human; remark: listed apart in the source
# STAT1 = format: cell-based, Human
# NF-κB = format: cell-based, Human
# VSV-wild type-FLuc = format: cell-based, vesicular stomatitis virus
# MG-1 = format: cell-based, Maraba virus
# STAT1 and STAT2 = format: cell-based, Human
# VSVΔ51 [9] = format: cell-based, vesicular stomatitis virus; remark: listed apart in the source
# AAV2-Fluc = AAV2-Fluc production in HEK293 cells, functional titre assay; format: cell-based, adeno-associated virus (AAV)
# [10] = tested on: various human and murine cell lines
# [11] = tested on: primary murine hepatocytes
# 786-0 cells [12] = experiment: cells; settings: Homo sapiens, 786-0, read-out: cell viability
# IFN-β = format: cell-based, Human
structure (smiles),measurement,setting,value
CCOc1cccc(F)c1C#Cc1cn([C@@H]2O[C@H](CNS(N)(=O)=O)[C@@H](O)[C@H]2O)c2ncnc(N)c12 [TAS4464],"VSVΔ51 infectivity (fluorescent signal, plaque assay)",VSVΔ51 [1],increased VSVΔ51 infectivity
same,"VSVΔ51 oncolysis (cell viability, Alamar blue)",786-0 cells [2],enhanced oncolysis
"NS(=O)(=O)OC[C@@H]1C[C@H](n2ccc3c(N[C@H]4CCc5ccccc54)ncnc32)C[C@@H]1O [pevonedistat, ((1S,2S,4S)-4-(4-(((S)-2,3-dihydro-1H-inden-1-yl)amino)-7H-pyrrolo[2,3-d]pyrimidin-7-yl)-2-hydroxycyclopentyl) methyl sulfamate]","VSVΔ51 growth (relative titer), multi-step growth curve",VSVΔ51 [1],robustly enhance
same,"VSVΔ51 infectivity (fluorescent signal, plaque assay)",VSVΔ51 [1],increased VSVΔ51 infectivity
same,average plaque diameter (plaque expansion assay),VSVΔ51 [1],significantly increased
same,time of administration capable of increasing VSVΔ51 viral titer,VSVΔ51 [1],24 hours prior until 4 hours after infection
same,viral GFP transgene expression,VSVΔ51 [1],marked increase
same,VSVΔ51-GFP viral titer,VSVΔ51 [3],increases
same,VSVΔ51 viral titer,VSVΔ51 [3],significantly increased
same,viral replication,VSVΔ51 [4],does not increase viral replication
same,increase in VSVΔ51 viral titer,VSVΔ51 [5],over 30 fold
same,VSVΔ51 infection,VSVΔ51 [6],able to increase VSVΔ51 infection
same,increase in viral titer,VSVΔ51 [6],over 15 fold
same,caspase-8 activity,786-0 cells [7],remained significantly increased
same,cleaved caspase-3 levels,786-0 cells [7],markedly higher levels
same,full-length poly (ADP-ribose) polymerase (PARP) levels,786-0 cells [7],decreased levels
same,proportion of Annexin V-positive cells,786-0 cells [7],significantly greater proportion
same,time of peak caspase-8 activity,786-0 cells [7],36 hpi
same,overall survival after CT26WT re-challenge,CT26WT colon carcinoma,improved overall survival
same,tumor volume progression after CT26WT re-challenge,CT26WT colon carcinoma,suppress tumor volume progression more effectively
same,tumor volumes post-treatment,CT26WT colon carcinoma,significantly smaller
same,survival,4T1 mammary carcinoma,significantly prolonged survival
same,tumor volumes post-treatment,4T1 mammary carcinoma,significantly smaller
same,STAT1 transcription factor activity predicted by TFactS,786-0 cells [8],inhibited
same,downregulation of promyelocytic leukemia protein (PML) gene,786-0 cells [8],approximately 79 fold
same,expression of genes related to the IFN-1 GO term,786-0 cells [8],significantly downregulated
same,genes significantly downregulated,786-0 cells [8],"3,326 genes"
same,"genes significantly upregulated (P<0.05, log 2-fold change >2)",786-0 cells [8],"3,038 genes"
same,phosphorylation levels of STAT1 and STAT2 in response to IFN-β treatment,STAT1,unable to markedly influence
same,protein availability of ISGF3 components including STAT1,STAT1,global reduction in protein availability
same,"transcription of STAT1 and downstream ISGs (IRF7, MX2, IFTM1)",STAT1,significantly decrease
same,transcription of STAT1 in the presence of exogenous IFN,STAT1,inhibiting the transcription of STAT1
same,NF-κB protein expression in nuclear fractions,NF-κB,markedly less NF-κB protein expression
same,transcription of pro-inflammatory cytokines controlled by NF-κB signaling including IFN-β,NF-κB,repressed transcription
same,production of wild-type VSV,VSV-wild type-FLuc,facilitate production
same,production of MG-1,MG-1,facilitate production
same,downstream RNA levels of IFN-1 effectors,STAT1 and STAT2,decreased
same,total protein levels of STAT1 and STAT2,STAT1 and STAT2,decreased
same,viral titer of VSVΔ51,VSVΔ51 [9],able to increase the viral titer
same,optimal concentration for AAV2-Fluc enhancement,"AAV2-Fluc; HEK293, functional titre assay",200 to 400 nM
same,enhancement of AAV2-Fluc viral signal,"AAV2-Fluc; HEK293, treated 60 min post transfection, 72 h, over a range of concentrations",up to 2.6 fold
same,cell killing and apoptosis activation,786-0 cells [2],increased cell killing and apoptosis activation
same,lowest concentration with significant viability differences with vs without VSVΔ51,786-0 cells [2],≥ 120 nM
same,cytotoxicity in combination with VSVΔ51,[10],increased cytotoxicity
same,"viability, compound + VSVΔ51 vs compound only",[11],no significant viability differences
same,viability at 1 µM,786-0 cells [12],33%
"Nc1ccc(SCC(=O)Nc2ccc3nc(NC(=O)c4ccc(C(F)(F)F)cc4)sc3c2)cc1 [ZM223, N-(6-(2-((4-aminophenyl)thio)acetamido)benzo[d]thiazol-2-yl)-4-(trifluoromethyl) benzamide]","VSVΔ51 infectivity (fluorescent signal, plaque assay)",VSVΔ51 [1],some viral sensitizing activity
same,IFN-β secretion,IFN-β,unable to do the same
COC(=O)C[C@H](NC(=O)[C@H](C)NC(=O)[C@@H](NC(=O)OCc1ccccc1)C(C)C)C(=O)CF [Z-VAD-FMK] (Cbz-Val-Ala-Asp(OMe)-CH2F),cell viability,786-0 cells [2],71%
